Data reported in patent US9499496B2, “Inhibitors of respiratory syncytial virus” (University of Kansas, priority 2012, dated 2016).
“And” between values parts separate entries of the source, which are not always exact repeats. Equal values may be shown once. Read-outs that look alike come from different tables or passages of the source. Marks after values point to notes of the source that are not given here.

Assays:
[1] = tested on: Ricerca LeadProfiling screen made up of 67 assays; assay: Ricerca LeadProfiling screen, all other targets of the 67 assays; assay type: binding; details: 10 μM, duplicate
[2] = tested on: Calcium Channel L-Type, Benzothiazepine; assay: Ricerca LeadProfiling screen; assay type: binding; details: 10 μM, duplicate, rat
RSV [3] = assay: Time of addition CPE assay; assay type: cell-based, RSV Long strain; details: for Change in cell viability with time of addition: addition at time points between 7-24 hours post-infection
Description: Assay Description: HEp-2 cells were plated in 96 well black tissue culture plates at 10,000 cells per well in 80 μl and incubated 24 hours at 37° C., 5% CO2. All cell plating was conducted using a Matrix WellMate™ and cells were maintained at room temperature with stirring during the plating process. Compounds were diluted in media to give a final concentration of 25 μM and added to plates at −1, 0, 1, 4, 6, 20 and 24 hours post-infection (p.i.). The cells were infected with RSV Long strain at an MOI of 3 and the assay plates were incubated for six days at 37° C., 5% CO2 and 90% relative humidity.
The Cell Titer Glo® assay was used to determine viability of the cells. The assay plates were equilibrated to room temperature for 10 minutes and then an equal volume of Cell Titer-Glo reagent (Promega Inc.) was added to each well. Plates were incubated for 10 min at room temperature and luminescence was measured using a multi-label plate reader with an integration time of 0.1 s.
A cell-based assay was used to determine the ability of the probe to inhibit different stages of a single round of viral replication. […] Compounds B and F (diamonds and squares, respectively) are of similar chemical structure. The percent cell viability values at each time point for the respective molecules are compared with that of ribavirin (RBV). […] This sustained efficacy may be due to the inhibition of one or more late virus life cycle steps (post-entry or late-stage infection processes), and this hypothesis is supported by an ability to affect processes later in the viral replication cycle.

in vitro [4] = details: human
vaccinia = assay type: cell-based
[5] = tested on: Venezuelan equine encephalitis; assay type: cell-based
[6] = tested on: Calcium Channel L-Type, Dihydropyridine; assay: Ricerca LeadProfiling screen; assay type: binding; details: 10 μM, duplicate, rat
influenza A = assay type: cell-based
dengue viruses = assay type: cell-based
RSV [7] = assay: RSV CPE assay (inhibition of RSV-induced cytopathic effect, luminescent cell viability readout); assay type: cell-based, RSV (strain Long); details: for Selectivity Index (CC50/EC50): antiviral activity over HEp-2 cell cytotoxicity
RSV [8] = assay: RSV plaque reduction assay (titer reduction); assay type: cell-based, RSV Long strain; details: HEp-2 cells; for Plaque Reduction Assay (log reduction) at 10 μM: 10 μM test compound; for Plaque Reduction Assay (log reduction): concentration not given
HEp-2 cells = details: HEp-2 cell cytotoxicity
[9] = Stability in PBS over 48 h; details: for Stability in PBS (% parent remaining after 48 h), with acetonitrile: PBS with 50% acetonitrile; for Stability in PBS (% parent remaining after 48 h): no additives, 23° C.
physchem [10] = details: plasma or biological fluid
physchem [11] = details: 23 °C, pH 7.4, aqueous buffer
in vitro [12] = details: PAMPA
[13] = human respiratory syncytial virus, HEp-2 cells, RSV-induced CPE, read-out: CPE Assay EC50

Row | Structure (SMILES) | Change in cell viability with time of addition (RSV [3]) | CC50 at 6 days (in vitro [4]; CC50, HEp-2 cell cytotoxicity) [nM] | Plaque Reduction Assay (log reduction) at 10 μM (RSV [8]) | Plaque Reduction Assay (log reduction) (RSV [8]) | EC50 (RSV [7]; [13]) [nM] | solubility (physchem [10]) | Selectivity Index (CC50/EC50) (RSV [7]) | solubility (physchem [11]) | further results
1 | COCCCNC(=O)c1ccc(Cn2c(=O)c3ccccc3n(Cc3ccc(C(C)C)cc3)c2=O)cc1 [Compound A, 4-((1-(4-isopropylbenzyl)-2,4-dioxo-1,2-dihydroquinazolin-3(4H)-yl)methyl)-N-(3-methoxypropyl)benzamide] | does not result in a dramatic change in cell viability | > 200000 | 6.7 log reduction and 6.70 log reduction | 6.70 log reduction |  |  |  |  | Inhibition, all other targets [1]: below 34%; Percent Inhibition [2]: 52%; Latest effective time of addition (RSV [3]; single round of viral replication, compound added −1 to 24 h post-infection): > 24 hours post-infection; Efficacy in inhibiting vaccinia (vaccinia): no efficacy; Efficacy in inhibiting Venezuelan equine encephalitis virus [5]: no efficacy; Percent Inhibition [6]: 70%; Efficacy in inhibiting influenza A (influenza A): no efficacy; Efficacy in inhibiting dengue viruses (dengue viruses): no efficacy; EC50 (RSV [7]; human respiratory syncytial virus, read-out: RSV CPE assay, repeated, repeat of the RSV CPE assay): 340 nM; EC50 (RSV [7]; read-out: CPE Assay EC50, HEp-2 cells, RSV-induced CPE): 810 nM
2 | COCCCNC(=O)c1ccc(Cn2c(=O)c3ccccc3n(Cc3ccc([N+](=O)[O-])cc3)c2=O)cc1 [Compound B, N-(3-methoxypropyl)-4-((1-(4-nitrobenzyl)-2,4-dioxo-1,2-dihydroquinazolin-3(4H)-yl)methyl)benzamide] | does not result in a dramatic change in cell viability | 128000 ± 4240 | >5.56 log reduction | >5.56^a log reduction | 570 ± 14 |  |  |  | CC50 (HEp-2 cells): > 128000 nM; Stability in PBS (% parent remaining after 48 h), with acetonitrile [9]: 94.9% (with; Stability in PBS (% parent remaining after 48 h) [9]: 83.4% (PBS);; EC50 (RSV [7]; human respiratory syncytial virus, repeat of the RSV CPE assay, read-out: RSV CPE assay, repeated): 200 nM
3 | COCCCNC(=O)c1ccc(Cn2c(=O)c3ccccc3n(Cc3ccc(Br)cc3)c2=O)cc1 [Compound C, 4-((1-(4-bromobenzyl)-2,4-dioxo-1,2-dihydroquinazolin-3(4H)-yl)methyl)-N-(3-methoxypropyl)benzamide] |  | 98800 ± 8700 | 4.07 log reduction | 4.07 log reduction | 850 ± 150 | 2.7 µg/mL and 5.03 µM | 118.9 | 0.31 µg/mL and 0.58 µM | Stability in PBS (% parent remaining after 48 h), with acetonitrile [9]: 100% (with; Stability in PBS (% parent remaining after 48 h) [9]: 57.5% (PBS);
4 | CCc1ccc(Cn2c(=O)n(Cc3ccc(C(=O)NCCCOC)cc3)c(=O)c3ccccc32)cc1 [Compound D, 4-((1-(4-ethylbenzyl)-2,4-dioxo-1,2-dihydroquinazolin-3(4H)-yl)methyl)-N-(3-methoxypropyl)benzamide] |  | 94800 ± 3750 | 5.90 log reduction | 5.90 log reduction | 1000 ± 50 | 1.5 µg/mL and 3.09 µM | 94.9 and 94.5 |  | 
5 | CN(C)c1ccc(Cn2c(=O)n(Cc3ccc(C(=O)NCC4COC4)cc3)c(=O)c3ccccc32)cc1 [Compound E, 4-((1-(4-(dimethylamino)benzyl)-2,4-dioxo-1,2-dihydroquinazolin-3(4H)-yl)methyl)-N-(oxetan-3-ylmethyl)benzamide] |  | ~50000 | >6.18 log reduction | >6.18 log reduction | 1070 ± 220 | 9.2 µg/mL and 18.4 µM | 41.8 | 5.6 µg/mL and 11.2 µM | CC50 (HEp-2 cells): 44700 ± 7220 nM; Plaque Reduction Assay (log reduction) (RSV [8]; listed as FIG. 5, entry 7): > 6 log reduction
6 | Cc1ccc(Cn2c(=O)n(Cc3ccc(C(=O)NCC4COC4)cc3)c(=O)c3ccccc32)cc1 [Compound F, 4-((1-(4-methylbenzyl)-2,4-dioxo-1,2-dihydroquinazolin-3(4H)-yl)methyl)-N-(oxetan-3-ylmethyl)benzamide] | does not result in a dramatic change in cell viability |  | 5.10 log reduction | 5.1 log reduction | 710 ± 130 | 4.5 µg/mL and 9.58 µM |  | 4.5 µg/mL and 0.75 µM | EC50 (RSV [7]; human respiratory syncytial virus, HEp-2 cells, read-out: CPE EC50 (potency) as given): ~700 nM
7 | CNC(=C[N+](=O)[O-])NCCSCc1ccc(CN(C)C)o1 [Ranitidine] |  |  |  |  |  |  |  |  | Papp (in vitro [12]): < 10 ×10⁻⁶ cm/s; Papp (in vitro [12]; pH 7.4): < 10 ×10⁻⁶ cm/s
8 | COCCCNC(=O)c1ccc(Cn2c(=O)c3ccccc3n(Cc3ccc(C)cc3)c2=O)cc1 [hit compound, 4-((1-(4-methylbenzyl)-2,4-dioxo-1,2-dihydroquinazolin-3(4H)-yl)methyl)-N-(3-methoxypropyl)benzamide] |  | 59500 |  | 4.15 log reduction | 2140 |  |  |  | 
9 | NC(=O)c1ncn([C@@H]2O[C@H](CO)[C@@H](O)[C@H]2O)n1 [ribavirin, reference compound] |  |  | 2.47 log reduction |  | 28400 |  |  |  | Protection of cells from RSV-induced CPE (RSV [3]; added up to 7 hours post-infection): approximately 100%; CC50 at 6 days (in vitro [4]): 114000 ± 38500 nM
